Test results reported in the kinase profiling compilation of Christmann-Franck et al. (2016).
Blank lines part the entries; values can stand above or below the compound they belong to.

Key:
Experiment in all cases: radiometric filter-binding kinase assay
[1] = biological target: MAPK8 (human) (UniProt P45983)
[2] = biological target: NUAK1 (human) (UniProt O60285)
[3] = biological target: RPS6KA1 KD1 KD2 (human) (UniProt Q15418)
[4] = biological target: NEK2 (human) (UniProt P51955)
[5] = biological target: MAP3K11 (human) (UniProt Q16584)
Chain of MAP3K11 (human) (Q16584 whole entry, looked up): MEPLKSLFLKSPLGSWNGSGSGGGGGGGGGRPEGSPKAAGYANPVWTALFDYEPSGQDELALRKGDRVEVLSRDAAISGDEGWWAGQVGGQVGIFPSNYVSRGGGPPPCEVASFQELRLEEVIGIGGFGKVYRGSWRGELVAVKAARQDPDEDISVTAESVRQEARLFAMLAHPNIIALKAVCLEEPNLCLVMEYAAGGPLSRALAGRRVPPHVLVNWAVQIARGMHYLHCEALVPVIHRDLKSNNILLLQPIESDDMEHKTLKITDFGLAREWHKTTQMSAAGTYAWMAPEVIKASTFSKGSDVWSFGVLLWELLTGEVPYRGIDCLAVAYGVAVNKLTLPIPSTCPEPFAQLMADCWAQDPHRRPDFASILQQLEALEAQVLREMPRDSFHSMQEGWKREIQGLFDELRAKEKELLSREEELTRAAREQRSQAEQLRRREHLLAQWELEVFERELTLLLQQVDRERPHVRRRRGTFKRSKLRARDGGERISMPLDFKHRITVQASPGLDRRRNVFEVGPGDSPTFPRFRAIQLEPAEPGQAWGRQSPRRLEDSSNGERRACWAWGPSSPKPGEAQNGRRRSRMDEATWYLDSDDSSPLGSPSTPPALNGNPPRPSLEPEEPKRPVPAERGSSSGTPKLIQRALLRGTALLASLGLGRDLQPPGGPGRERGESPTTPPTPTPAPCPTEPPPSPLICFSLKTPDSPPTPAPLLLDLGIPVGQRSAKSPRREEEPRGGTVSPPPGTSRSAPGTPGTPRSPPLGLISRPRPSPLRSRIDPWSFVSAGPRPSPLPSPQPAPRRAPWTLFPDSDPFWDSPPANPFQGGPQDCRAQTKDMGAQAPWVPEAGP

[6] = biological target: IKBKE (human) (UniProt Q14164)
Chain of IKBKE (human) (Q14164 whole entry, looked up): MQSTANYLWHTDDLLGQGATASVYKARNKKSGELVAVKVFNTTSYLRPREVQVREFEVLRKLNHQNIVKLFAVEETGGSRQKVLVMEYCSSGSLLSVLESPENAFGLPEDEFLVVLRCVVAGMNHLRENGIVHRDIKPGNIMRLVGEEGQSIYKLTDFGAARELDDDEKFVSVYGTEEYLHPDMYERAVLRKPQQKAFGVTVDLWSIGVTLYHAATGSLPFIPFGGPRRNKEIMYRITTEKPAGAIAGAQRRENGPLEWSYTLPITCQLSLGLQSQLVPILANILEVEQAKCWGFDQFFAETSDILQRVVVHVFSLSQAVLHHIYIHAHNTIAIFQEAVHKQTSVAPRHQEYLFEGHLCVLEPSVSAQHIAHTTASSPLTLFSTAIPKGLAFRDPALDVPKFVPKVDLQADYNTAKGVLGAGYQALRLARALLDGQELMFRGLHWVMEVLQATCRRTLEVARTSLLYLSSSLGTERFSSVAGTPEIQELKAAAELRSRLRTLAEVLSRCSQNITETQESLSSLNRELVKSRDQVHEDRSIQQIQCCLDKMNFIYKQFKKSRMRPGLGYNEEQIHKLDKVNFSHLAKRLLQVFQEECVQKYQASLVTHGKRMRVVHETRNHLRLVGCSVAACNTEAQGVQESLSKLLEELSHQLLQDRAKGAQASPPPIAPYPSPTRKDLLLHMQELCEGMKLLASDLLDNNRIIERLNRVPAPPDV

[7] = biological target: DYRK3 (human) (UniProt O43781)
[8] = biological target: MARK2 (human) (UniProt Q7KZI7)
[9] = biological target: CHEK2 (human) (UniProt O96017)
[10] = biological target: MKNK2 (human) (UniProt Q9HBH9)
[11] = biological target: TBK1 (human) (UniProt Q9UHD2)
[12] = biological target: IRAK4 (human) (UniProt Q9NWZ3)
[13] = biological target: NTRK1 (human) (UniProt P04629)
Chain of NTRK1 (human) (P04629 whole entry, looked up): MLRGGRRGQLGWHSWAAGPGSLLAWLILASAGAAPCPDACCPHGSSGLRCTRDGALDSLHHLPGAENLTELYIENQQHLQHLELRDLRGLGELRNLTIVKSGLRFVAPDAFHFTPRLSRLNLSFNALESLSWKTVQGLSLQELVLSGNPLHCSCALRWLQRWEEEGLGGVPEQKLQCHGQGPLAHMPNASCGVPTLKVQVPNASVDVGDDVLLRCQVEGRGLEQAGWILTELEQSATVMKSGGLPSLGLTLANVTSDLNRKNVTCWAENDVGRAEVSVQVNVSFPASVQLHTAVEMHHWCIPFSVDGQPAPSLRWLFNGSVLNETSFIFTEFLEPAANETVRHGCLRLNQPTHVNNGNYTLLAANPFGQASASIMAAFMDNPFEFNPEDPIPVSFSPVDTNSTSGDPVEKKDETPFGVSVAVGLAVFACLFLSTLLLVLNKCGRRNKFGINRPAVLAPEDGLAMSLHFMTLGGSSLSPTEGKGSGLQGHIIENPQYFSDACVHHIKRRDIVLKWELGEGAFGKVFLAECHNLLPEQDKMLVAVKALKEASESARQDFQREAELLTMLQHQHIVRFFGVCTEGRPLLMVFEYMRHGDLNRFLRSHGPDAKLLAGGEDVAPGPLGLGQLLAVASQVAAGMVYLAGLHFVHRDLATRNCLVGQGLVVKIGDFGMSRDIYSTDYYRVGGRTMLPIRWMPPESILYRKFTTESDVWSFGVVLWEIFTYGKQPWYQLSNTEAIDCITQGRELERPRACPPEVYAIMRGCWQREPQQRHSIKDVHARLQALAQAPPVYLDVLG

[14] = biological target: CaMK1 (human) (UniProt Q14012)
[15] = biological target: IKBKB (human) (UniProt O14920)
Chain of IKBKB (human) (O14920 whole entry, looked up): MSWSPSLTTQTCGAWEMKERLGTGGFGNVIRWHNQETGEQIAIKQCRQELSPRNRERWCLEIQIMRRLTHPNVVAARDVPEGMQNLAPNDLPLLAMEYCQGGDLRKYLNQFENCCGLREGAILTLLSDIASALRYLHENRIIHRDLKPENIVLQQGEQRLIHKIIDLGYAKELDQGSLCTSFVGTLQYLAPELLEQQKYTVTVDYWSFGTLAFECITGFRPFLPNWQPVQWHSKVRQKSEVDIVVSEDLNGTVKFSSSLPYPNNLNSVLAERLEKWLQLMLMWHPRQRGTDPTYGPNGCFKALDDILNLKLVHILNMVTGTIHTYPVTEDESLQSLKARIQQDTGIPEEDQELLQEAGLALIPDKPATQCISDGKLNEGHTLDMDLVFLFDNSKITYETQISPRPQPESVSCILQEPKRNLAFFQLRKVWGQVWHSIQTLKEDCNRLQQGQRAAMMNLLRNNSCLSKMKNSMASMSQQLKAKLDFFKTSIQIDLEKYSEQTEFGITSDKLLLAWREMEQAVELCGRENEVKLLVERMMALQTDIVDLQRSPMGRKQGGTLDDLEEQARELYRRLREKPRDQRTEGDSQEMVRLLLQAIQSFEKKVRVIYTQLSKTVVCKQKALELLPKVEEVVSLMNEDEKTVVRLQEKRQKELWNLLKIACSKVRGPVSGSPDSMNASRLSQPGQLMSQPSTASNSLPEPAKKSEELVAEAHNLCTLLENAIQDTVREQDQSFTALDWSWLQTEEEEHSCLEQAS

[16] = biological target: MAPK14 (human) (UniProt Q16539)
[17] = biological target: JAK2 JH1 JH2 (human) (UniProt O60674)
[18] = biological target: MARK3 (human) (UniProt P27448)
[19] = biological target: DYRK1A (human) (UniProt Q13627)
[20] = tested on: AKT1 (human), P31749 [S473D]
[21] = biological target: MAPK9 (human) (UniProt P45984)
[22] = biological target: PIM1 (human) (UniProt P11309)
[23] = biological target: MAPKAPK2 (human) (UniProt P49137)
[24] = biological target: TTK (human) (UniProt P33981)
[25] = biological target: NEK6 (human) (UniProt Q9HC98)
[26] = biological target: MKNK1 (human) (UniProt Q9BUB5)
Chain of MKNK1 (human) (Q9BUB5 whole entry, looked up): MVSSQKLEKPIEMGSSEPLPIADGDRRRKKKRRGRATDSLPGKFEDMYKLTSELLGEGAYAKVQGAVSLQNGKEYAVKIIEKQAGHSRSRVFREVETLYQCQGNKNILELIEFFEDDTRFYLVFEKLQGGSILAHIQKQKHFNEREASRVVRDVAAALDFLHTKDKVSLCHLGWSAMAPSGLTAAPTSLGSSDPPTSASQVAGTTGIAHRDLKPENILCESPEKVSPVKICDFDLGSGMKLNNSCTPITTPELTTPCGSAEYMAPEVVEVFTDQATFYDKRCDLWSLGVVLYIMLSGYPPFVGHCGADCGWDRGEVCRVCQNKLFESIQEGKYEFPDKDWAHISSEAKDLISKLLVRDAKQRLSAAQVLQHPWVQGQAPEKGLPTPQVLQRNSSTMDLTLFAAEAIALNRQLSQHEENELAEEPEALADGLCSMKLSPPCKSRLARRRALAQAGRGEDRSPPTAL

[27] = biological target: MAP2K1 (human) (UniProt Q02750)
[28] = tested on: RPS6KB1 (human), P23443 [T412E]
[29] = biological target: EPHB2 (human) (UniProt P29323)
[30] = biological target: MARK1 (human) (UniProt Q9P0L2)
[31] = biological target: STK11 CAB39 STRADA (human) (UniProt Q9Y376+Q7RTN6+Q15831)
Chain of STK11 CAB39 STRADA (human) (Q15831 whole entry, looked up): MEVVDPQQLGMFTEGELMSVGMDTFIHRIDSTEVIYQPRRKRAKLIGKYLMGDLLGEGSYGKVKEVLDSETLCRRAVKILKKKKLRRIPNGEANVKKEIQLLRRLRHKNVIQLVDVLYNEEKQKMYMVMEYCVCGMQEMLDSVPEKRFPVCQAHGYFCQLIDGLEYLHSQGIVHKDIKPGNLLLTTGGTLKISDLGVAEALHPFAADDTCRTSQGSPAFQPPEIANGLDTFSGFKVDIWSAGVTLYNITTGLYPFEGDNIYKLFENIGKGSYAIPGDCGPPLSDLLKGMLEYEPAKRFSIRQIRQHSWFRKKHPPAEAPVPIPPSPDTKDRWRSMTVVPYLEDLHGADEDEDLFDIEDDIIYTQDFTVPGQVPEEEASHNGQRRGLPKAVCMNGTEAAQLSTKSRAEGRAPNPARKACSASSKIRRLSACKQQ
Chain of STK11 CAB39 STRADA (human) (Q7RTN6 whole entry, looked up): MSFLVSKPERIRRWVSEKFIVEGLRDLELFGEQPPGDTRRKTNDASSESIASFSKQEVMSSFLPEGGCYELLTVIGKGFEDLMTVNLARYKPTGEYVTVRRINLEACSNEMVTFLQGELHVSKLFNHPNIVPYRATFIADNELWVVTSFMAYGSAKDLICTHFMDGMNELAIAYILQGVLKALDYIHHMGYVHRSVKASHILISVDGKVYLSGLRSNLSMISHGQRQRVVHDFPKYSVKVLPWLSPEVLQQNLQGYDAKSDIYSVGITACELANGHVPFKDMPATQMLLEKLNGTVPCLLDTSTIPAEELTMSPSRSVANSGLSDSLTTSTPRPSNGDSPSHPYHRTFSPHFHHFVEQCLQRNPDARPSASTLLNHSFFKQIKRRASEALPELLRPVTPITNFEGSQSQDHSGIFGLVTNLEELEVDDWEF
Chain of STK11 CAB39 STRADA (human) (Q9Y376 whole entry, looked up): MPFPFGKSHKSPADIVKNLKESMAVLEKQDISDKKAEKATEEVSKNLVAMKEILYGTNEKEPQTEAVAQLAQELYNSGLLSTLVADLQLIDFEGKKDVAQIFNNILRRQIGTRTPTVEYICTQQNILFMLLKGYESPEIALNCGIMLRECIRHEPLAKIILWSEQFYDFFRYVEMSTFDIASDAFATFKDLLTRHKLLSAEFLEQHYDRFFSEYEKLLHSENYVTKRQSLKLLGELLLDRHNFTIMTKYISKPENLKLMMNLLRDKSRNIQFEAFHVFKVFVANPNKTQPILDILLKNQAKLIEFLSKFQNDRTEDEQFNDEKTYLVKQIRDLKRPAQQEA

[32] = biological target: STK3 (human) (UniProt Q13188)
[33] = biological target: PAK4 (human) (UniProt O96013)
[34] = biological target: CSNK1D (human) (UniProt P48730)
[35] = biological target: MAPK3 (human) (UniProt P27361)

residual activity ([1]; compound 0.01 µM): 94% | residual activity ([1]; compound 0.1 µM): 107% | residual activity ([1]; compound 1.0 µM): 86% | residual activity ([2]; compound 0.01 µM): 97% | residual activity ([2]; compound 0.1 µM): 93% | residual activity ([2]; compound 1.0 µM): 64% | residual activity ([3]; compound 0.01 µM): 106% | residual activity ([3]; compound 0.1 µM): 91% | residual activity ([3]; compound 1.0 µM): 38% | residual activity ([4]; compound 0.01 µM): 112% | residual activity ([4]; compound 0.1 µM): 93% | residual activity ([4]; compound 1.0 µM): 95% | residual activity ([5]; compound 0.01 µM): 105% | residual activity ([5]; compound 0.1 µM): 100% | residual activity ([5]; compound 1.0 µM): 70% | residual activity ([6]; compound 0.1 µM): 94% | residual activity ([6]; compound 1.0 µM): 102% | residual activity ([7]; compound 0.01 µM): 92% | residual activity ([7]; compound 0.1 µM): 92% | residual activity ([7]; compound 1.0 µM): 97% | residual activity ([8]; compound 0.01 µM): 101% | residual activity ([8]; compound 0.1 µM): 90% | residual activity ([8]; compound 1.0 µM): 63% | residual activity ([9]; compound 0.01 µM): 89% | residual activity ([9]; compound 0.1 µM): 75% | residual activity ([9]; compound 1.0 µM): 34% | residual activity ([10]; compound 0.01 µM): 107% | residual activity ([10]; compound 0.1 µM): 107% | residual activity ([10]; compound 1.0 µM): 102% | residual activity ([11]; compound 0.01 µM): 101% | residual activity ([11]; compound 0.1 µM): 91% | residual activity ([11]; compound 1.0 µM): 91% | residual activity ([12]; compound 0.01 µM): 90% | residual activity ([12]; compound 0.1 µM): 97% | residual activity ([12]; compound 1.0 µM): 90% | residual activity ([13]; compound 0.01 µM): 98% | residual activity ([13]; compound 1.0 µM): 89% | residual activity ([14]; compound 0.01 µM): 97% | residual activity ([14]; compound 0.1 µM): 90% | residual activity ([14]; compound 1.0 µM): 90% | residual activity ([15]; compound 0.01 µM): 83% | residual activity ([15]; compound 0.1 µM): 95% | residual activity ([15]; compound 1.0 µM): 99% | residual activity ([16]; compound 0.01 µM): 121% | residual activity ([16]; compound 0.1 µM): 79% | residual activity ([16]; compound 1.0 µM): 26% | residual activity ([17]; compound 0.01 µM): 99% | residual activity ([17]; compound 0.1 µM): 88% | residual activity ([17]; compound 1.0 µM): 89% | residual activity ([18]; compound 0.01 µM): 92% | residual activity ([18]; compound 0.1 µM): 73% | residual activity ([18]; compound 1.0 µM): 28% | residual activity ([19]; compound 0.01 µM): 100% | residual activity ([19]; compound 0.1 µM): 95% | residual activity ([19]; compound 1.0 µM): 93% | residual activity ([20]; compound 0.01 µM): 98% | residual activity ([20]; compound 0.1 µM): 92% | residual activity ([20]; compound 1.0 µM): 91% | residual activity ([21]; compound 0.01 µM): 103% | residual activity ([21]; compound 0.1 µM): 90% | residual activity ([21]; compound 1.0 µM): 21% | residual activity ([22]; compound 0.01 µM): 107% | residual activity ([22]; compound 0.1 µM): 113% | residual activity ([22]; compound 1.0 µM): 111% | residual activity ([23]; compound 0.01 µM): 101% | residual activity ([23]; compound 0.1 µM): 100% | residual activity ([23]; compound 1.0 µM): 97% | residual activity ([24]; compound 0.01 µM): 100% | residual activity ([24]; compound 0.1 µM): 92% | residual activity ([24]; compound 1.0 µM): 75% | residual activity ([25]; compound 0.01 µM): 102% | residual activity ([25]; compound 0.1 µM): 90% | residual activity ([25]; compound 1.0 µM): 91% | residual activity ([26]; compound 0.01 µM): 109% | residual activity ([26]; compound 0.1 µM): 116% | residual activity ([26]; compound 1.0 µM): 112% | residual activity ([27]; compound 0.01 µM): 107% | residual activity ([27]; compound 0.1 µM): 106% | residual activity ([27]; compound 1.0 µM): 97% | residual activity ([28]; compound 0.01 µM): 88% | residual activity ([28]; compound 0.1 µM): 99% | residual activity ([28]; compound 1.0 µM): 93% | residual activity ([29]; compound 0.01 µM): 109% | residual activity ([29]; compound 0.1 µM): 43% | residual activity ([29]; compound 1.0 µM): 1% | residual activity ([30]; compound 0.01 µM): 88% | residual activity ([30]; compound 0.1 µM): 87% | residual activity ([30]; compound 1.0 µM): 53% | residual activity ([31]; compound 0.01 µM): 108% | residual activity ([31]; compound 0.1 µM): 106% | residual activity ([31]; compound 1.0 µM): 96% | residual activity ([32]; compound 0.01 µM): 112% | residual activity ([32]; compound 0.1 µM): 109% | residual activity ([32]; compound 1.0 µM): 118% | residual activity ([33]; compound 0.01 µM): 116% | residual activity ([33]; compound 0.1 µM): 97% | residual activity ([33]; compound 1.0 µM): 94% | residual activity ([34]; compound 0.01 µM): 89% | residual activity ([34]; compound 0.1 µM): 85% | residual activity ([34]; compound 1.0 µM): 79% | residual activity ([35]; compound 0.01 µM): 104% | residual activity ([35]; compound 0.1 µM): 101% | residual activity ([35]; compound 1.0 µM): 95%
SMILES: COc1ccc(N(C(=O)Nc2c(C)cccc2C)c2cc(Nc3ccc(N4CCN(C)CC4)cc3)ncn2)c(OC)c1

residual activity ([1]; compound 1.0 µM): 107% | residual activity ([1]; compound 10.0 µM): 103% | residual activity ([2]; compound 1.0 µM): 85% | residual activity ([2]; compound 10.0 µM): 61% | residual activity ([3]; compound 1.0 µM): 87% | residual activity ([3]; compound 10.0 µM): 63% | residual activity ([4]; compound 1.0 µM): 96% | residual activity ([4]; compound 10.0 µM): 92% | residual activity ([5]; compound 1.0 µM): 94% | residual activity ([5]; compound 10.0 µM): 87% | residual activity ([6]; compound 10.0 µM): 101% | residual activity ([7]; compound 1.0 µM): 108% | residual activity ([8]; compound 1.0 µM): 94% | residual activity ([8]; compound 10.0 µM): 89% | residual activity ([9]; compound 10.0 µM): 76% | residual activity ([10]; compound 1.0 µM): 91% | residual activity ([10]; compound 10.0 µM): 109% | residual activity ([11]; compound 10.0 µM): 83% | residual activity ([12]; compound 1.0 µM): 84% | residual activity ([12]; compound 10.0 µM): 79% | residual activity ([13]; compound 1.0 µM): 90% | residual activity ([13]; compound 10.0 µM): 90% | residual activity ([14]; compound 1.0 µM): 109% | residual activity ([14]; compound 10.0 µM): 21% | residual activity ([15]; compound 1.0 µM): 87% | residual activity ([15]; compound 10.0 µM): 88% | residual activity ([16]; compound 1.0 µM): 100% | residual activity ([16]; compound 10.0 µM): 80% | residual activity ([17]; compound 1.0 µM): 101% | residual activity ([18]; compound 1.0 µM): 96% | residual activity ([18]; compound 10.0 µM): 101% | residual activity ([19]; compound 10.0 µM): 82% | residual activity ([20]; compound 1.0 µM): 91% | residual activity ([20]; compound 10.0 µM): 53% | residual activity ([21]; compound 1.0 µM): 102% | residual activity ([21]; compound 10.0 µM): 96% | residual activity ([22]; compound 1.0 µM): 92% | residual activity ([22]; compound 10.0 µM): 94% | residual activity ([23]; compound 1.0 µM): 91% | residual activity ([23]; compound 10.0 µM): 95% | residual activity ([24]; compound 1.0 µM): 90% | residual activity ([24]; compound 10.0 µM): 86% | residual activity ([25]; compound 1.0 µM): 115% | residual activity ([25]; compound 10.0 µM): 63% | residual activity ([26]; compound 1.0 µM): 86% | residual activity ([26]; compound 10.0 µM): 83% | residual activity ([27]; compound 1.0 µM): 108% | residual activity ([27]; compound 10.0 µM): 107% | residual activity ([28]; compound 1.0 µM): 86% | residual activity ([28]; compound 10.0 µM): 21% | residual activity ([29]; compound 1.0 µM): 82% | residual activity ([29]; compound 10.0 µM): 91% | residual activity ([30]; compound 1.0 µM): 87% | residual activity ([30]; compound 10.0 µM): 79% | residual activity ([31]; compound 1.0 µM): 103% | residual activity ([31]; compound 10.0 µM): 99% | residual activity ([32]; compound 1.0 µM): 106% | residual activity ([32]; compound 10.0 µM): 81% | residual activity ([33]; compound 1.0 µM): 84% | residual activity ([33]; compound 10.0 µM): 70% | residual activity ([34]; compound 1.0 µM): 96% | residual activity ([34]; compound 10.0 µM): 93% | residual activity ([35]; compound 1.0 µM): 80% | residual activity ([35]; compound 10.0 µM): 63%
SMILES: NCC(=O)Nc1ccc(-n2nc(C(F)(F)F)cc2-c2ccc3c(ccc4ccccc43)c2)cc1
